Data taken from patent US11891362B1, “N2,N4-disubstituted pyrimidine-2,4-diamine compounds as antibacterial agents” (KING FAISAL UNIVERSITY, priority 2023, dated 2024).
Converted amounts (≈) assume the structure as drawn. Read-outs that look alike come from different tables or passages of the source.

Experiments:
[1] = molecular target: T1, DNA gyrase from E. coli (Escherichia coli, UniProt P0AES4+P0AES6); test: Inhibitory activities on E. coli DNA gyrase (Inspiralis assay); type: biochemical
T1 construct: purchased Inspiralis
T1 sequence (P0AES4 whole entry, one chain of several): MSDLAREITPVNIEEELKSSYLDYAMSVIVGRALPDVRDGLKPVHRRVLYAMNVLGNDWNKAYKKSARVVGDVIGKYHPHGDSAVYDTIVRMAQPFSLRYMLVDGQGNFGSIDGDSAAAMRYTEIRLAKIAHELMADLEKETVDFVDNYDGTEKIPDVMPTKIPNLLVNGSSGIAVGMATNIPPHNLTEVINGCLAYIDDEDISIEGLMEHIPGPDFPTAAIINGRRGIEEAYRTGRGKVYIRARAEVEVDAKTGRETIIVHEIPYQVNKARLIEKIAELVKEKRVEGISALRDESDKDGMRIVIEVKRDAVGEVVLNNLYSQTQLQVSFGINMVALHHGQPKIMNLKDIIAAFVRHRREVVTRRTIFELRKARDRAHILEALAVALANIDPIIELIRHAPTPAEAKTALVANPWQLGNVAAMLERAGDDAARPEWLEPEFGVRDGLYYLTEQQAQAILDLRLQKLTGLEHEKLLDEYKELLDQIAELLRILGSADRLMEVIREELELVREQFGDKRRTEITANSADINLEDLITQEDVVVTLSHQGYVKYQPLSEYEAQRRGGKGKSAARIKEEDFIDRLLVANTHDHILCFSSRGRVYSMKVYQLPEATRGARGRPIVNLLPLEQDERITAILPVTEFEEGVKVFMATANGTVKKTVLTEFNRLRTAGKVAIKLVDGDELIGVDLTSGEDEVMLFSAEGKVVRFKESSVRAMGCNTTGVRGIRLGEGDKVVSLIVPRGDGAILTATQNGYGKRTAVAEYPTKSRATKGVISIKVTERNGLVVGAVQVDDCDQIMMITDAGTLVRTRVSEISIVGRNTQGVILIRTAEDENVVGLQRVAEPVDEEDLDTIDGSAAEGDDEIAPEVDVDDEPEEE
Method: First, the plates were rehydrated with buffer (20 mM Tris-HCl with pH 7.6, 0.01% w/v BSA, 0.05% v/v Tween 20, 137 mM NaCl) and the biotinylated oligonucleotide was then immobilized. After washing off the unbound oligonucleotide, the enzyme test was performed. The reaction volume of 30 μL in buffer (35 mM Tris×HCl with pH 7.5, 4 mM MgCl2, 24 mM KCl, 2 mM DTT, 1.8 mM spermidine, 1 mM ATP, 6.5% w/v glycerol, 0.1 mg/mL albumin) contained 1.5 U of DNA gyrase from E. coli, 0.75 μg of relaxed pNO1 plasmid, and 3 μL solution of the inhibitor in 10% DMSO and 0.008% Tween 20. Reaction solutions were incubated at 37° C. for 30 min. After that, the TF buffer (50 mM NaOAc with pH 5.0, 50 mM NaCl and 50 mM MgCl2) was added to terminate the enzymatic reaction. After additional incubation for 30 min at rt, during which biotinoligonucleotide-plasmid triplex was formed, the unbound plasmid was washed off using TF buffer and SybrGOLD in T10 buffer (10 mM Tris HCl with pH 8.0 and 1 mM EDTA) was added. The fluorescence was measured with a microplate reader (BioTek Synergy H4, excitation: 485 nm, emission: 535 nm). Initial screening was done at 100 or 10 μM concentration of inhibitors. […] GraphPad Prism software was used to calculate the IC50 values. The result is given as the average value of three independent measurements.

[2] = test system: Mycobacterium tuberculosis H37Rv strain; test: Anti-tubercular properties, alamar blue microplate assay; type: cell-based; conditions: 168 h, seven days incubation, read-out: anti-mycobacterial activity (MIC)
[3] = test system: Pseudomonas aeruginosa MTCC 741; test: In vitro antibacterial activity, dilution susceptibility test (CLSI M07-A10); type: cell-based; conditions: MTCC741
From the text: (§1) Enterococcus faecium resistant to VRE, and Gram-negative organisms including Klebsiella pneumonia, Escherichia coli, Pseudomonas aeruginosa.

[4] = test system: Staphylococcus aureus ATCC BAA-1556 (MERSA resistant); test: as above; type: cell-based; conditions: ATCCBAA1556
From the text: as §1

[5] = test system: Staphylococcus epidermidis; test: as above; type: cell-based
From the text: as §1

[6] = test system: Escherichia coli MTCC 443; test: as above; type: cell-based; conditions: MTCC443
From the text: as §1

[7] = test system: Enterococcus faecium ATCC 35667; test: as above; type: cell-based; conditions: ATCC35667
From the text: as §1

[8] = test system: Enterococcus faecium ATCC 51559 (VRE resistant); test: as above; type: cell-based
From the text: as §1

[9] = test system: Staphylococcus aureus ATCC 29213; test: as above; type: cell-based; conditions: ATCC29213
From the text: as §1

[10] = test system: Bacillus subtilis MTCC 441; test: as above; type: cell-based; conditions: MTCC441
From the text: as §1

[11] = test system: Klebsiella pneumonia MTCC 618; test: as above; type: cell-based; conditions: Klebsiella pneumoniae, MTCC618
From the text: as §1

Row | SMILES | IC50 [1] | MIC [2] | MIC ([3]; Pseudomonas aeruginosa MTCC 741, read-out: MIC) | MIC [4] | MIC [5] | MIC [6] | MIC [7] | MIC [8] | MIC [9] | MIC [10] | MIC ([11]; Klebsiella pneumonia MTCC 618, read-out: MIC) | MIC ([3]; Pseudomonas aeruginosa) | MIC [11]
1 | CC(=O)Nc1cccc(Nc2nccc(Nc3ccc(C(=O)O)cc3CN(C)C3CCCCC3)n2)c1 [Compound 7, 4-((2-((3-acetamidophenyl)amino)pyrimidin-4-yl)amino)-3-((cyclohexyl(methyl)amino)methyl)benzoic acid] | 0.25 µM | 16 µg/mL (≈ 32.7 µM) | 4 µg/mL (≈ 8.19 µM) | 8 µg/mL (≈ 16.4 µM) | 8 µg/mL (≈ 16.4 µM) | 8 µg/mL (≈ 16.4 µM) | 4 µg/mL (≈ 8.19 µM) | 16 µg/mL (≈ 32.7 µM) | 8 µg/mL (≈ 16.4 µM) | 4 µg/mL (≈ 8.19 µM) | 4 µg/mL (≈ 8.19 µM) | – | –
2 | CN[C@H](CC(C)C)C(=O)N[C@H]1C(=O)N[C@@H](CC(N)=O)C(=O)N[C@H]2C(=O)N[C@H]3C(=O)N[C@H](C(=O)N[C@H](C(=O)O)c4cc(O)cc(O)c4-c4cc3ccc4O)[C@H](O)c3ccc(c(Cl)c3)Oc3cc2cc(c3O[C@@H]2O[C@H](CO)[C@@H](O)[C@H](O)[C@H]2O[C@H]2C[C@](C)(N)[C@H](O)[C@H](C)O2)Oc2ccc(cc2Cl)[C@H]1O [Vancomycin, reference compound] | – | – | – | – | – | – | – | – | – | – | – | > 128 µg/mL | > 128 µg/mL
